Assay results reported in patent publication US8633179B2, “Synergistic interaction of NOTCH-1 inhibitors with glucocorticoids” (priority 2007, dated 2014).
Like-named read-outs stand apart in the source and are kept apart here.

Experiments:
[1] = tested on: CUTLL1 cells; assay: Cell viability (MTT/colorimetric proliferation) assay; assay type: cell-based, human; conditions: for effect of γ-secretase inhibition on the apoptotic response triggered by the drug: CUTLL1, 100 nM CompE or vehicle, increasing drug concentrations
Method: FIG. 1. GSIs reverse glucocorticoid resistance in T-ALL cells. (a-c). […] Statistical significance was assessed with Student's t-test.
FIG. 7. Analysis of the effects of GSI treatment in chemotherapy response. Cell viability analysis in the CUTLL1 cells treated with 100 nM CompE or vehicle only in presence of increasing concentrations of etoposide, methotrexate, L-asparaginase and vincristine. Cell viability was analyzed by an MTT assay and cytotoxicity data was represented as percentage of viable cells compared with non-treated controls. Data are means±s.d. of triplicate experiments.
Proliferation and cell size assays.

[2] = tested on: KOPTK1 cells; assay: Cell viability assay; assay type: cell-based, human
Method: (§1) FIG. 1. […] (a-c). […] (e) Percentage of apoptotic cells (annexinV positive/PI negative) in CUTLL1 (72 hours), KOPTK1 (48 hours) and TALL1 cells (72 hours) treated with DMSO (control), CompE (100 nM), dexamethasone (1 μM) and dexamethasone (1 μM) plus CompE (100 nM). […] Data in (a-f) are means±standard deviation (s.d.) of triplicate experiments. Statistical significance was assessed with Student's t-test.
(§2) Proliferation and cell size assays. Cell growth ratios were determined by a colorimetric assay using the Cell Proliferation Kit I (MU) (Roche) in cell lines treated with different antileukemic drugs in the presence or absence of CompE (100 nM). The range of concentrations used in these experiments was: dexamethasone (10^−10 to […]), etoposide (10^−10 to 10^−4 M), methotrexate (10^−10 to 10^−4 M), L-Asparaginase (10^−8 to 10^−2 g/l) and vincristine (10^−12 to 10^−6 M).

[3] = tested on: TALL1 cells; assay: Cell viability assay; assay type: cell-based, human
Method: as §1, §2

[4] = tested on: PARP cleavage; assay: Western blot analysis of PARP cleavage in CUTLL1 cells; assay type: cell-based, human
Method: as §1
Western blot analysis. Antibodies against glucocorticoid receptor (E-20, Santa Cruz Biotechnology), BIM (Cell Signaling Technologies); BMF (BD Bioscience) and α-actin (C-11, Santa Cruz Biotechnology) were used in immunoblot assays following manufacturer instructions.

[5] = tested on: NOTCH1 signaling; assay: NOTCH1 signaling in CUTLL1 cells; assay type: cell-based, human; conditions: CUTLL1, CompE 72 hours
[6] = tested on: CUTLL1 T-ALL xenografts; assay: Subcutaneous xenograft model with in vivo bioimaging; parameters: species or system NOD/SCID mice; conditions: 4 days of daily i.p. treatment; dexamethasone 15 mg/kg, DBZ 10 μmol/kg
Method: Subcutaneous xenograft model and in vivo imaging. […] For subcutaneous xenograft experiments, 2.5×10^6 T-ALL cells embedded in matrigel (BD Biosciences) were injected in the flank. After 1 week, mice were segregated into treatment groups (6 animals per group) and treated daily with vehicle (DMSO), dexamethasone (15 mg/kg), DBZ (10 μmol/kg) or dexamethasone (15 mg/kg) plus DBZ (10 μmol/kg) by intraperitoneal injection. For imaging studies, mice were anesthetized by isoflurane inhalation and injected with D-luciferin at 50 mg/Kg (Xenogen) intraperitoneally. Photonic emission was imaged with the In Vivo Imaging System (IVIS, Xenogen) with a collection time of 1 minute. Tumor bioluminescence was quantified by integrating the photonic flux (photons per second) through a region encircling each tumor as determined by the LIVING IMAGES software package (Xenogen).

[7] = tested on: Klf4; assay: Klf4 expression in small intestine of treated mice; assay type: in vivo
Text: KLF4 regulation by NOTCH signaling in the gut. (a,b) Immunohistochemistry analysis of Klf4 expression in small intestine of mice treated with dexamethasone, DBZ or the combination of dexamethasone plus DBZ for 5 days. Scale bars represent 100 μm. (c) Real-time PCR analysis of Klf4 transcript levels in small intestine of mice treated with dexamethasone, DBZ or the combination of dexamethasone plus DBZ for 5 and 10 days. Gapdh levels were used as a reference control. Data are means±s.d. of three animals per group.
Quantitative real-time PCR. […] Total RNA from mouse tissues was extracted using Trizol reagent (Invitrogen). cDNA was generated with the ThermoScript RT-PCR system (Invitrogen) and analyzed by quantitative real-time PCR using SYBR Green RT-PCR Core Reagents kit and the 7300 Real-Time PCR System (Applied Biosystems). Relative expression levels were normalized with GAPDH expression used as a reference control.
Mouse toxicity model. To analyze the effects of GSI cotreatment with dexamethasone in healthy (non-leukemia-bearing) mice, we treated C57/Bl6 female animals (3 mice per group) daily with vehicle (DMSO), dexamethasone (15 mg/kg), DBZ (10 μmol/kg) and dexamethasone (15 mg/kg) plus DBZ (10 μmol/kg) by intraperitoneal injection for 5 and 10 days. […]

[8] = Pharmacokinetic analysis of DBZ in mouse plasma; assay type: in vivo; conditions: DBZ 2 μmol/kg tail vein; mice pre-treated with dexamethasone 15 mg/kg for 5 days vs vehicle
Method: Pharmacokinetic and drug metabolism studies. […] The concentration of DBZ in mouse plasma was determined using a standard curve (analyte peak area vs. concentration) generated with calibration standard pools.

[9] = DBZ metabolism by liver microsomes in vitro; assay type: in vitro ADME, mouse; conditions: in the presence of dexamethasone vs vehicle, 37° C.
Method: To analyze the effects of dexamethasone in the hepatic metabolism of DBZ, mouse liver microsomes (Xenotech) were incubated with DBZ or dexamethasone plus DBZ at 37° C. and DBZ concentrations were analyzed by LC/MS/MS mass spectrometry in samples taken at serial timepoints using a standard curve prepared in incubation buffer with heat inactivated liver microsomes.

[10] = tested on: CUTLL1 cells expressing luciferase
Method: Leukemia xenograft model. Before intravenous xenograft transplantation, recipient animals were irradiated with a total x-ray dose of 300 cGy. Two million CUTLL1 cells expressing luciferase were injected via the tail vein. After a 3-week window for tumor engraftment, mice with homogeneous tumor burdens were segregated into treatment groups (8 animals per group) and treated daily with vehicle (DMSO), dexamethasone (15 mg/kg), DBZ (10 μmol/kg) or dexamethasone (15 mg/kg) plus DBZ (10 μmol/kg) by intraperitoneal injection for 14 days. Disease progression/response was evaluated weekly using bioimaging as described above by integrating the photonic flux (photons per second) through a region around each mouse. Animals were followed up for up to 10 weeks. At the end of the observation period, single cell suspensions from the spleen of surviving animals were analyzed for the presence of leukemic cells by flow cytometry after staining with human anti-CD45-FITC (BD Biosciences).

[11] = mouse, in vivo
[12] = Mouse toxicity model (histology, immunohistochemistry, flow cytometry); conditions: 5 days of treatment

With `C[C@H](NC(=O)Cc1cc(F)cc(F)c1)C(=O)N[C@H]1N=C(c2ccccc2)c2ccccc2N(C)C1=O` [CompE] the “cell response to CompE alone (cell cycle, apoptosis)” value ([1]; CUTLL1, 72 hours) was “modest cytostatic response characterized by G1 cell cycle arrest with little or no apoptosis”, the “cell response to CompE treatment alone” value [2] was “G1 cell cycle arrest” and the “cell response to CompE treatment alone” value [3] was “G1 cell cycle arrest”. For the same molecule, the “PARP cleavage (Western blot)” value ([4]; CUTLL1) was “no significant increase in PARP cleavage” and the NOTCH1 signaling [5] was “effectively blocks NOTCH1 signaling”.

With `C[C@H](NC(=O)Cc1cc(F)cc(F)c1)C(=O)NC1C(=O)N(C)c2ccccc2-c2ccccc21` (stereo partly drawn) [DBZ, (2S)-2-[2-(3,5-difluorophenyl)-acetylamino]-N-(5-methyl-6-oxo-6,7-dihydro-5H-dibenzo[b,d]azepin-7-yl)-propionamide] the “tumor growth / tumor burden by bioimaging” value [6] was “moderate delay in tumor growth”, the “Klf4 expression by RT-PCR” value ([7]; 5 and 10 days) was “gradual increase of Klf4 expression” and the “KLF4 expression by immunohistochemistry” value ([7]; 5 days) was “marked increased in KLF4 staining”. The “clearance of DBZ in vivo” value [8] was “reduced the clearance of DBZ”, the “DBZ metabolism by liver microsomes” value [9] was “decrease in DBZ metabolism” and the “toxicity in leukemia-bearing mice (mortality, weight loss)” value ([10]; daily i.p. for 14 days) was “accelerated mortality associated with weight loss due to GSI toxicity”. The survival ([10]; end of the observation period (10 weeks), vs. controls) was “inferior outcome”, the “histopathology of the gut after 5 days” value [11] was “moderate secretory metaplasia with increased number of goblet cells” and the “intestinal proliferation (Ki67 staining)” value [11] was “marked reduction in proliferation”. For the same molecule, the “spleen histology / cellularity” value [11] was “disappearance of the marginal zone in the white pulp” and the “thymus histology / cellularity” value [11] was “thymic atrophy with loss of the lymphoid cells from the cortex”.

For `C[C@@H]1C[C@H]2[C@@H]3CCC4=CC(=O)C=C[C@]4(C)[C@@]3(F)[C@@H](O)C[C@]2(C)[C@@]1(O)C(=O)CO` [dexamethasone], the IC50 ([1]; Homo sapiens, CUTLL1 cells, 72 hours, dexamethasone in the presence of CompE (100 nM)) was 77 nM, the “spleen histology / cellularity” value [12] was “moderate atrophy of the white pulp with preservation of the marginal zone and disorganization of the red pulp” and the “thymus histology / cellularity” value [12] was “thymic atrophy with loss of the lymphoid cells from the cortex”. The “histopathology of the gut after 5 days” value ([12]; small intestine, H&E and PAS) was “no histopathological changes in the gut”.

In the case of `COc1cc([C@@H]2c3cc4c(cc3[C@@H](O[C@@H]3O[C@@H]5CO[C@@H](C)O[C@H]5[C@H](O)[C@H]3O)[C@H]3COC(=O)[C@H]23)OCO4)cc(OC)c1O` [etoposide], the “effect of γ-secretase inhibition on the apoptotic response triggered by the drug” value (“effect of γ-secretase inhibition” for short) [1] is reported as “did not influence the apoptotic responses”.

For `CN(Cc1cnc2nc(N)nc(N)c2n1)c1ccc(C(=O)N[C@@H](CCC(=O)O)C(=O)O)cc1` [methotrexate], the “effect of γ-secretase inhibition” value [1] was “did not influence the apoptotic responses”.

In the case of `CC[C@]1(O)C[C@H]2CN(CCc3c([nH]c4ccccc34)[C@@](C(=O)OC)(c3cc4c(cc3OC)N(C=O)[C@H]3[C@@](O)(C(=O)OC)[C@H](OC(C)=O)[C@]5(CC)C=CCN6CC[C@]43[C@@H]65)C2)C1` [vincristine], the “effect of γ-secretase inhibition” value [1] is reported as “did not influence the apoptotic responses”.

In the case of Z-VAD, the “effect on PARP cleavage and apoptosis triggered by CompE plus dexamethasone” value ([4]; CUTLL1, Western blot and annexin V-PI staining) is reported as “reversed the induction of PARP cleavage and apoptosis”.

B1: L-asparaginase: antineoplastic drug from Roche; inhibition of protein biosynthesis (protein, UniProt P00805 23-348, looked up)
L-asparaginase 2: LPNITILATGGTIAGGGDSATKSNYTVGKVGVENLVNAVPQLKDIANVKGEQVVNIGSQDMNDNVWLTLAKKINTDCDKTDGFVITHGTDTMEETAYFLDLTVKCDKPVVMVGAMRPSTSMSADGPFNLYNAVVTAADKASANRGVLVVMNDTVLDGRDVTKTNTTDVATFKSVNYGPLGYIHNGKIDYQRTPARKHTSDTPFDVSKLNELPKVGIVYNYANASDLPAKALVDAGYDGIVSAGVGNGNLYKSVFDTLATAAKTGTAVVRSSRVPTGATTQDAEVDDAKYGFVASGTLNPQKARVLLQLALTQTKDPQQIQQIFNQY
With B1 the “effect of γ-secretase inhibition” value [1] was “did not influence the apoptotic responses”.
